Assay [1] deals with MKN45 (RCB1001) human gastric tumor cell-derived xenograft (CDX) model. Put plainly: Anti-tumor activity in MKN45 gastric mouse xenograft (CDX) model (Example 8). The class given is in vivo. The settings on record: Compound A 10 mg/kg oral once per day. The protocol:
All mouse studies were approved by the Institutional Animal Care and Use Committee (IACUC) based on guidelines from the National Institutes of Health (NIH). Mice were maintained under pathogen-free conditions, and food and water were provided ad libitum.
The anti-tumor effect of Compound A and irinotecan hydrochloride as single-agents or in combination was assessed in the MKN45 (RCB1001) human gastric tumor cell-derived xenograft (CDX) model. MKN45 was expanded in RPMI1640 with 10% fetal bovine serum. Cells were free of mycoplasma and authenticated by STR profiling, and ten million cells in log growth phase were resuspended in Hanks Balanced Salt Solution containing 50% Matrigel and implanted subcutaneously into the flank of each recipient female Crl:NU-Foxn1nu mouse. Mice were housed in microisolator cages with corn cob bedding with additional enrichment consisting of sterile nesting material (Innovive) and Bio-huts (Bio-Serv). Water (Innovive) and diet (Teklad Global 19% Protein Extruded Diet 2919, Irradiated) were provided ad libitum. The environment was maintained on a 12-hour light cycle at approximately 68-72° F. and 40-60% relative humidity.
Tumor Volume (TV) was calculated using the following formula: TV (mm^3)=(width×width×length)/2. Tumor growth inhibition (TGI) was calculated by [(TV controlfinal−TV treatedfinal)/(TV controlfinal−TV controlinitial)×100]. TV was analyzed for statistical significance utilizing GraphPad Prism version 10.2.2. Repeated Measures 2-Way ANOVA with Dunnet's Multiple Comparisons was utilized, and P-values were derived from data collected on the date of Vehicle group termination and were considered statistically significant if less than 0.05.
Mean tumor volume at dosing start was approximately 190 mm^3, with six mice randomized to each treatment group. Mice were dosed orally, once per day, with Vehicle, Compound A at 10 mg/kg, or dosed for 3 consecutive days followed by 4 days holiday by intraperitoneal (IP) injection of Compound B at 5 mg/kg or 10 mg/kg, or combination of Compound A and Compound B. The vehicle group was a combination of Vehicle A (for Compound A, 0.5% 400 cps methylcellulose with 0.5% Tween-80 in sterile water) and Vehicle B (for irinotecan hydrochloride, Saline).

The subject of a further assay is J82. Nature of the assay: 10-day proliferation screen with Compound A pre-treatment (Example 3). The following applies: Homo sapiens, read-out: Growth IC50. It counts as cell-based. The method, then: (§1) A 10-day proliferation screen was performed in 15 pancreatic, non-small cell lung, and bladder cancer cell lines: 10 MTAP null and 5 MTAP wild-type. Optimal cell seeding for all cell lines was determined by assessing the growth over a range of seeding densities in a 384-well format to identify conditions that permitted proliferation for 10 days. Cells were then plated at the optimal seeding density in the presence of 20-150 nM of Compound A or DMSO vehicle control. Cells were incubated at 37° C. with 5% CO2 for 4 days to allow for target engagement of the pre-treatment compound. Maintaining the pre-treatment condition, cells were also treated with an 11-point, three-fold titration series of compounds from a chemically diverse library of 424 compounds. The combination compound concentrations ranged from 0.2 nM to 14,679 nM. A plate of cells was harvested at the time of combination compound addition to quantify the number of cells at the start of the combination (T0). For cell quantification, the harvested cells were lysed with CellTiter-Glo (CTG) (Promega) reagent according to the manufacturer's protocol and the chemiluminescent signal was detected on a Synergy Neo plate reader (ThermoFisher, serial #140715A). CTG estimates cell number through detection of cellular ATP levels. Cells were incubated with the drug combinations at 37° C. with 5% CO2 for an additional 6 days for a total of a 10-day assay including the pre-treatment. Cells were then lysed with CTG and the chemiluminescent signal was measured. CTG values obtained after the 10-day treatment were background subtracted, expressed as a percent of the T0 value, and plotted against compound concentration. Data were fit with a four-parameter equation to generate concentration response curves. Growth IC50 values and maximal growth inhibition were compared between the DMSO and the Compound A pre-treated cells for each combination titration. Combination hit calling was based on the observation of >2-fold shift in growth IC50 and/or greater than 20% decrease in growth inhibition.

A further assay relates to NCI-H2170. The assay is described as above. The class given is cell-based. The following applies: Homo sapiens, read-out: Growth IC50. The method, then: as §1
Another assay concerns NCI-H2228. The assay is described as above. The class given is cell-based. The following applies: Homo sapiens, read-out: Growth IC50. The method, then: as §1
The next assay relates to NCI-H520. Described as above. It counts as cell-based. The settings on record: Homo sapiens, read-out: Growth IC50. The protocol:
as §1

The test system of another assay is NCI-H838. The description is as above. It counts as cell-based. The following applies: Homo sapiens, read-out: Growth IC50. The method, then: as §1
The test system of another assay is OE33. The description is as above. It counts as cell-based. The following applies: Homo sapiens, read-out: Growth IC50. The protocol: as §1
The test system of the next assay is RT112/84. The assay is described as above. It counts as cell-based. The following applies: Homo sapiens, read-out: Growth IC50. The method, then: as §1
In another assay the test system is SW900. Described as above. It counts as cell-based. The settings on record: Homo sapiens, read-out: Growth IC50. The protocol: as §1
The next assay relates to UMUC11. Described as above. The class given is cell-based. The following applies: read-out: Growth IC50. The protocol: as §1
The test system of another assay is UMUC5. Described as above. It counts as cell-based. The settings on record: read-out: Growth IC50. The protocol: as §1
The test system of a further assay is SKGT4. The assay is described as above. It counts as cell-based. The settings on record: read-out: Growth IC50.
For assay [2], the system named is 15 pancreatic, non-small cell lung, and bladder cancer cell lines: 10 MTAP null and 5 MTAP wild-type. Put plainly: 10-day proliferation screen with Compound A pre-treatment, panel summary (Example 3). The class given is cell-based. The method, then:
as §1, with “The combination compound concentrations ranged from 0.2 nM to 14,679 nM.” left out, “CTG estimates cell number through detection of cellular ATP levels. Cells were incubated with the drug combinations at 37° C. with 5% CO2 for an additional 6 days for a total of a 10-day assay including the pre-treatment.” left out, “Data were fit with a four-parameter equation to generate concentration response curves. Growth IC50 values and maximal growth inhibition were compared between the DMSO and the Compound A pre-treated cells for each combination titration. Combination hit calling was based on the observation of >2-fold shift in growth IC50 and/or greater than 20% decrease in growth inhibition.” left out

By TGI is commonly meant how far tumour growth fell short of that in controls. As a reminder, the IC50 is the point on the concentration scale where inhibition reaches its midpoint.

Like-named read-outs stand apart in the source and are kept apart here.

In the case of `Nc1nc(=O)n(-c2ccccc2Cl)c2nc(C(F)(F)F)ccc12` [Compound A], in assay [1], the “Day 25 TGI” value was 56% and the “Tumor Regression Rate on Day 25” value was found to be 0%. In addition, in assay [1] (initial TV 191, vehicle 1396), the “Day 25 TV (mean)” value was 726 mm^3. Besides, the tumour growth inhibition (TGI) in assay [1] (irinotecan 5 or 10 mg/kg IP 3 days on/4 days off) is on record as 56%.
Consider `NS(=O)(=O)c1ccc(S(=O)(=O)Nc2cccc3c(Cl)c[nH]c23)cc1` [Indisulam, N-(3-chloro-1H-indol-7-yl)benzene-1,4-disulfonamide], for which the IC50 amounted to 7100 nM with J82 (J82, Cmpd A pre-treatment 150 nM); 12500 nM with J82 (J82, DMSO pre-treatment); 5550 nM in the assay with NCI-H2170 (NCI-H2170, Cmpd A pre-treatment 80 nM); 7170 nM in the assay with NCI-H2170 (NCI-H2170, DMSO pre-treatment); 191 nM with NCI-H2228 (NCI-H2228, Cmpd A pre-treatment 80 nM); 167 nM in the assay on NCI-H2228 (NCI-H2228, DMSO pre-treatment). The IC50 is 790 nM in the assay with NCI-H520 (NCI-H520, Cmpd A pre-treatment 80 nM); 727 nM in the assay with NCI-H520 (NCI-H520, DMSO pre-treatment); 539 nM in the assay on NCI-H838 (NCI-H838, Cmpd A pre-treatment 20 nM); 342 nM with NCI-H838 (NCI-H838, Cmpd A pre-treatment 150 nM); 1050 nM with NCI-H838 (NCI-H838, DMSO pre-treatment (control for 20 nM Cmpd A)); 807 nM in the assay with NCI-H838 (NCI-H838, DMSO pre-treatment (control for 150 nM Cmpd A)). For the same compound, the 50% inhibitory concentration (IC50) was 5370 nM in the assay with OE33 (OE33, Cmpd A pre-treatment 150 nM); 12100 nM in the assay with OE33 (OE33, DMSO pre-treatment); 229 nM in the assay with RT112/84 (RT112/84, Cmpd A pre-treatment 150 nM); 913 nM in the assay with RT112/84 (RT112/84, DMSO pre-treatment); 1100 nM with SW900 (SW900, Cmpd A pre-treatment 80 nM); 2280 nM in the assay on SW900 (SW900, DMSO pre-treatment). Also, the IC50 was found to be 1270 nM in the assay on UMUC11 (Cmpd A pre-treatment 150 nM); 864 nM with UMUC11 (DMSO pre-treatment); 807 nM in the assay on UMUC5 (Cmpd A pre-treatment 150 nM); 1830 nM with UMUC5 (DMSO pre-treatment); 516 nM in the assay with SKGT4 (SKGT4, Cmpd A pre-treatment 150 nM); 1060 nM in the assay with SKGT4 (SKGT4, DMSO pre-treatment). The “cell lines with growth IC50 shifts ≥2-fold” value in [2] (MTAP-deficient cell lines) is on record as 7/10; in assay [2] (wild type cell lines), 1/5.
